System: 996289-038-R-J1-PDC spheroid viability
Experiment: Anticancer human tumor 996289-038-R-J1-PDC patient-derived colon adenocarcinoma cell line growth inhibition [PI3K]
Conditions: spheroids with HUVEC and MSC; for IC50: curve of first compound; for viability, T/C: stronger effect = lower value; active means viability on the fitted dose curve at most 10% of control; inactive means the rest
In short: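 Tumor cells grown as multi-cell spheroids with HUVEC endothelial cells and MSC fibroblast-like stroma were treated with targeted agents combined with inavolisib, alpelisib, duvelisib or copanlisib. Doses fell in half-log steps from near clinical Cmax, else from 10 microM. Viability was measured.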

[1] = second compound 0.0316 µM, first compound 0.0316 µM
[2] = second compound 0.0316 µM, first compound 0.1 µM
[3] = second compound 0.0316 µM, first compound 0.316 µM
[4] = second compound 0.0316 µM, first compound 1 µM
[5] = second compound 0.0316 µM, first compound 3.16 µM
[6] = second compound 0.0316 µM, first compound 10 µM
[7] = second compound 0.1 µM, first compound 0.0316 µM
[8] = second compound 0.1 µM, first compound 0.1 µM
[9] = second compound 0.1 µM, first compound 0.316 µM
[10] = second compound 0.1 µM, first compound 1 µM
[11] = second compound 0.1 µM, first compound 3.16 µM
[12] = second compound 0.1 µM, first compound 10 µM
[13] = second compound 0.316 µM, first compound 0.0316 µM
[14] = second compound 0.316 µM, first compound 0.1 µM
[15] = second compound 0.316 µM, first compound 0.316 µM
[16] = second compound 0.316 µM, first compound 1 µM
[17] = second compound 0.316 µM, first compound 3.16 µM
[18] = second compound 0.316 µM, first compound 10 µM
[19] = second compound 1 µM, first compound 0.0316 µM
[20] = second compound 1 µM, first compound 0.1 µM
[21] = second compound 1 µM, first compound 0.316 µM
[22] = second compound 1 µM, first compound 1 µM
[23] = second compound 1 µM, first compound 3.16 µM
[24] = second compound 1 µM, first compound 10 µM
[25] = second compound 3.16 µM, first compound 0.0316 µM
[26] = second compound 3.16 µM, first compound 0.1 µM
[27] = second compound 3.16 µM, first compound 0.316 µM
[28] = second compound 3.16 µM, first compound 1 µM
[29] = second compound 3.16 µM, first compound 3.16 µM
[30] = second compound 3.16 µM, first compound 10 µM
[31] = second compound 10 µM, first compound 0.0316 µM
[32] = second compound 10 µM, first compound 0.1 µM
[33] = second compound 10 µM, first compound 0.316 µM
[34] = second compound 10 µM, first compound 1 µM
[35] = second compound 10 µM, first compound 3.16 µM
[36] = second compound 10 µM, first compound 10 µM
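Further: spheroids exposed to compounds for seven days before viability read.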
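Wherever viability, T/C is given: luminescence used as a proxy for viable cell amount; percent viability relative to DMSO vehicle control as 100%.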

C#Cc1c(F)ccc2cc(O)cc(-c3ncc4c(N5CC6CCC(C5)N6)nc(OCC56CCCN5CC(F)C6)nc4c3F)c12 (centres undefined) + CC(Nc1ncnc2nc[nH]c12)c1cc2cccc(Cl)c2c(=O)n1-c1ccccc1
1.51 µM: IC50 (second compound 0.1 µM)
0.372 µM: IC50 (second compound 10 µM)
1.43 µM: IC50 (second compound 0.316 µM)
0.681 µM: IC50 (second compound 3.16 µM)
1.04 µM: IC50 (second compound 1 µM)
inactive: viability, T/C [1] 101% | viability, T/C [2] 96.6% | viability, T/C [3] 69.7% | viability, T/C [4] 52% | viability, T/C [5] 45.6% | viability, T/C [6] 37.2% | viability, T/C [7] 90.4% | viability, T/C [8] 76.2% | viability, T/C [9] 60.6% | viability, T/C [10] 55.3% | viability, T/C [11] 46.8% | viability, T/C [12] 33% | viability, T/C [13] 95.9% | viability, T/C [14] 81.8% | viability, T/C [15] 71.2% | viability, T/C [16] 54% | viability, T/C [17] 40% | viability, T/C [18] 33.7% | viability, T/C [19] 99.3% | viability, T/C [20] 79% | viability, T/C [21] 59.8% | viability, T/C [22] 57.5% | viability, T/C [23] 35.6% | viability, T/C [24] 32.8% | viability, T/C [25] 92.3% | viability, T/C [26] 81.6% | viability, T/C [27] 63.2% | viability, T/C [28] 42.6% | viability, T/C [29] 34.1% | viability, T/C [30] 27.6% | viability, T/C [31] 78.9% | viability, T/C [32] 74% | viability, T/C [33] 47.8% | viability, T/C [34] 37.9% | viability, T/C [35] 29.5% | viability, T/C [36] 20.9%
1.16 µM: IC50 (second compound 0.0316 µM)

CC1(C)CCC(Nc2ncc(C(F)(F)F)c(-c3c[nH]c4c(P(C)(C)=O)c(C#N)ccc34)n2)CN1 (centres undefined) + CC(Nc1ncnc2nc[nH]c12)c1cc2cccc(Cl)c2c(=O)n1-c1ccccc1
6.14 µM: IC50 (second compound 0.0316 µM)
5.94 µM: IC50 (second compound 0.316 µM)
5.26 µM: IC50 (second compound 3.16 µM)
4.66 µM: IC50 (second compound 10 µM)
5.51 µM: IC50 (second compound 0.1 µM)
5.43 µM: IC50 (second compound 1 µM)
inactive: viability, T/C [1] 95.8% | viability, T/C [2] 84.5% | viability, T/C [3] 85.2% | viability, T/C [4] 77.9% | viability, T/C [5] 84% | viability, T/C [6] 25% | viability, T/C [7] 88.9% | viability, T/C [8] 87.3% | viability, T/C [9] 77.9% | viability, T/C [10] 75.4% | viability, T/C [11] 78.1% | viability, T/C [12] 20.1% | viability, T/C [13] 95.7% | viability, T/C [14] 83.8% | viability, T/C [15] 85.8% | viability, T/C [16] 77.9% | viability, T/C [17] 87.8% | viability, T/C [18] 19.9% | viability, T/C [19] 88.6% | viability, T/C [20] 86.1% | viability, T/C [21] 72.8% | viability, T/C [22] 72.3% | viability, T/C [23] 80.3% | viability, T/C [24] 16% | viability, T/C [25] 82.6% | viability, T/C [26] 81.3% | viability, T/C [27] 74.2% | viability, T/C [28] 74.4% | viability, T/C [29] 79.2% | viability, T/C [30] 14.2% | viability, T/C [31] 90.9% | viability, T/C [32] 74.5% | viability, T/C [33] 58.3% | viability, T/C [34] 70.3% | viability, T/C [35] 69.8% | viability, T/C [36] 10.9%

Reference: PubChem BioAssay AID1963965 (Molecular Pharmacology Branch, DTP, NCI, 2024)
